The text below walks through data of ChEMBL document CHEMBL1156935, “Discovery of potent BACE-1 inhibitors containing a new hydroxyethylene (HE) scaffold: exploration of P1' alkoxy residues and an aminoethylene (AE) central core” (Bioorg Med Chem, 2010).

The target of one assay is Beta-secretase 1 (Homo sapiens, UniProt P56817).
Another assay has as its target Cathepsin D (Homo sapiens, UniProt P07339).
The species entered for a further assay is Homo sapiens. As to the kind of experiment: Selectivity for human BACE1 over human cathepsin D.

pKi: −log10 of the molar value.

Sequence of Cathepsin D (P07339 65-162 limits assumed): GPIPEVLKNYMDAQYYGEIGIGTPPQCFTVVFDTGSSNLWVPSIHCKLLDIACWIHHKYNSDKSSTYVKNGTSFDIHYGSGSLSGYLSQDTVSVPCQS
Sequence of Cathepsin D (P07339 169-412 limits assumed): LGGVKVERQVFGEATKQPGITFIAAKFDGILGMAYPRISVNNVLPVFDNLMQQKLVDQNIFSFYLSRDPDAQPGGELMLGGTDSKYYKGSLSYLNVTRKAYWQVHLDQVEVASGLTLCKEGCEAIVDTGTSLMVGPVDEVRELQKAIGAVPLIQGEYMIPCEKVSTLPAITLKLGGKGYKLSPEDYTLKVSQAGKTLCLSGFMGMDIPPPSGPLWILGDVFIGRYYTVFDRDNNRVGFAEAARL
Sequence of Beta-secretase 1 (P56817 whole entry): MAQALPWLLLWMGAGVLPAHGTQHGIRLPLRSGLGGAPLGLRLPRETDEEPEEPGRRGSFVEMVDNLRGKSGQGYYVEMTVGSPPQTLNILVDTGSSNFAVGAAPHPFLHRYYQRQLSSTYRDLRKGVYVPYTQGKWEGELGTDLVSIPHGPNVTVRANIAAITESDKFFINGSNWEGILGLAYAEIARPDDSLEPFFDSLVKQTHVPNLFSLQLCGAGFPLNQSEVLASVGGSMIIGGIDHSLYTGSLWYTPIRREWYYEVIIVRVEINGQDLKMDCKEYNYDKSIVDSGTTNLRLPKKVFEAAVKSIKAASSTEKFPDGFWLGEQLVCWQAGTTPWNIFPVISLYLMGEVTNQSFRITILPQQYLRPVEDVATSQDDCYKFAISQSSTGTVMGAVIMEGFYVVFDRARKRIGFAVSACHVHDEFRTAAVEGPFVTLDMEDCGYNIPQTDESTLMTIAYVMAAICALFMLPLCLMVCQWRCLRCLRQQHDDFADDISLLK
Description for Beta-secretase 1: Inhibition of human BACE1 expressed in Escherichia coli BL21(DE3) by resolved fluorescence assay
Description for Cathepsin D: Inhibition of human cathepsin D

Broadly, the pKi is −log10 of the Ki, conventionally taken in molar units. A lower pKi goes with a high Ki. Turning to `C=CCO[C@H](C[C@H](O)[C@H](COc1cc(F)cc(F)c1)NC(=O)c1cc(C(=O)N[C@H](C)c2ccccc2)cc(N(C)S(C)(=O)=O)c1)C(=O)N[C@H](C(=O)NCc1ccccc1)C(C)C`, the pKi was 8.48 on Beta-secretase 1 and 6.89 at Cathepsin D.

Regarding `CCO[C@H](C[C@H](O)[C@H](COc1cc(F)cc(F)c1)NC(=O)c1cc(C(=O)N[C@H](C)c2ccccc2)cc(N(C)S(C)(=O)=O)c1)C(=O)N[C@H](C(=O)NCc1ccccc1)C(C)C`, the values for the pKi on Beta-secretase 1 and on Cathepsin D were 8.68 and 5.47, respectively. Further, in the assay filed under Homo sapiens, the Ratio Ki is over 1500.

On to `CCCO[C@H](C[C@H](O)[C@H](COc1cc(F)cc(F)c1)NC(=O)c1cc(C(=O)N[C@H](C)c2ccccc2)cc(N(C)S(C)(=O)=O)c1)C(=O)N[C@H](C(=O)NCc1ccccc1)C(C)C`, for which the pKi at Beta-secretase 1 is 8.52; at Cathepsin D, 7.21.

Regarding `CO[C@H](C[C@H](N)C(COc1cc(F)cc(F)c1)NC(=O)c1cc(C(=O)N[C@H](C)c2ccccc2)cc(N(C)S(C)(=O)=O)c1)C(=O)N[C@H](C(=O)NCc1ccccc1)C(C)C` (single isomer, unassigned), the pKi at Beta-secretase 1 was 6.85; on Cathepsin D, under 5.30.

With `CO[C@H](C[C@H](N=[N+]=[N-])C(COc1cc(F)cc(F)c1)NC(=O)c1cc(C(=O)N[C@H](C)c2ccccc2)cc(N(C)S(C)(=O)=O)c1)C(=O)N[C@H](C(=O)NCc1ccccc1)C(C)C` (single isomer, unassigned), the pKi on Beta-secretase 1 is 7.15; on Cathepsin D, under 5.30.

As for `CC(C)[C@H](NC(=O)[C@@H](C[C@H](O)[C@H](COc1cc(F)cc(F)c1)NC(=O)c1cc(C(=O)N[C@H](C)c2ccccc2)cc(N(C)S(C)(=O)=O)c1)OCc1ccccc1)C(=O)NCc1ccccc1`, the pKi at Beta-secretase 1 is 7.70; on Cathepsin D, 7.21. In addition, in the assay filed under Homo sapiens, the Ratio Ki was found to be 1.6.

Turning to `CO[C@H](CCC(COc1cc(F)cc(F)c1)NC(=O)c1cc(C(=O)N[C@H](C)c2ccccc2)cc(N(C)S(C)(=O)=O)c1)C(=O)N[C@H](C(=O)NCc1ccccc1)C(C)C` (single isomer, unassigned), the negative-log Ki (pKi) is 6.89 at Beta-secretase 1 and under 5.30 on Cathepsin D.

For the compound `CC(C)[C@H](NC(=O)[C@@H](C[C@H](O)[C@H](COc1cc(F)cc(F)c1)NC(=O)c1cc(C(=O)N[C@H](C)c2ccccc2)cc(N(C)S(C)(=O)=O)c1)OCC1CC1)C(=O)NCc1ccccc1`, on Beta-secretase 1, the negative logarithm of the Ki (pKi) was 8.89.
